Laboratory results: publication PMC6152655, “Determination and Pharmacokinetic Study of Three Diterpenes in Rat Plasma by UHPLC-ESI-MS/MS after Oral Administration of Rosmarinus officinalis L. Extract” (Molecules : A Journal of Synthetic Chemistry and Natural …, 2017)
Read-outs that look alike come from different tables or passages of the source.

Legend:
[1] = Pharmacokinetic study in rats after oral administration of R. officinalis extract (UHPLC-ESI-MS/MS of plasma); type: in vivo, Sprague-Dawley (SD) rats; parameters: Cmax: unit: ng/mL; settings: for Cmax / AUC(0-inf) / AUC(0-t) / Tmax / half-life: rat plasma, n = 6; for concentration at 0.5 h: plasma sample obtained at 0.5 h from a rat after oral administration of rosemary extract (Figure 2C)
Description: The validated method was successfully applied to pharmacokinetic studies of three diterpenes components after oral administration of rosemary at three different doses (0.25, 0.82, 2.45 g/kg). […] Therefore, we set low, medium and high doses in this study.
The main pharmacokinetic parameters of the analytes were calculated with DAS 2.0 (Shanghai, China) by non-compartmental analysis.
For the preparation of the extract, 100 g of dried leaves of R. officinalis were extracted under reflux with 1 L ethanol-water (80:20, v/v) for three times, 1 h for each time, and then filtrated. The combined filtrate was evaporated to dryness, and the residue was dissolved in water to get a concentration equivalent to 0.1 g/mL of the R. officinalis extract.
Male Sprague-Dawley (SD) rats (body weight 220 ± 50 g) were purchased and adapted under 65% RH, 23–27°C. […] Eighteen rats were randomly divided into low (0.24 g/kg), medium (0.82 g/kg), high (2.45 g/kg) dose groups. The SD rats were fasted for 12 h before experiment, had free access to water even during the experiment. The blood (0.25 mL) was collected from the orbital venous plexus at 0.08, 0.25, 0.50, 1, 1.5, 2, 3, 4, 6, 8, 12 and 24 h after oral administration of R. officinalis extract. The plasma was immediately acquired by centrifugation at 4 °C and stored frozen at −20 °C until analysis.
Before the experiment, the plasma samples stored in −20 °C were thawed naturally at room temperature. Using the optimized method, 50 μL of I.S. (2120 ng/mL), 100 μL of methanol and 100 μL of 1 mol/L HCl were added to 100 μL of plasma sample followed with vortex-mixed for 30 s. The mixed sample was extracted with 3 mL of ethyl acetate by being vortex-mixed for 1 min. The upper organic layer was removed and evaporated to dryness under a stream of nitrogen at 40 °C after centrifuging at 3800 rpm for 5 min. The residue was reconstituted with 100 μL of acetonitrile-water (40:60, v/v), and then vortex-mixed for 2 min and filtered by a 0.22 μm membrane. 10 μL of the subsequent filtrate were injected into the UHPLC-ESI-MS/MS system [20].
The maximum plasma concentration (Cmax) and the time of maximum plasma concentration (tmax) were observed directly from the measured data. The elimination rate constant (Ke) was calculated by linear regression of the terminal points in a semi-log plot of the plasma concentration against time. The elimination half-life (t1/2) was calculated using the formula t1/2 = 0.693/Ke. The area under plasma concentration-time curve (AUC0→t) to the last measurable plasma concentration (Ct) was estimated by using the linear trapezoidal rule. The area under the plasma concentration-time curve to time infinity (AUC0→∞) was calculated as AUC0→∞ = AUC0→t + Ct/Ke. Pharmacokinetic parameters of the analytes were calculated with DAS 2.0 (Shanghai, China) by non-compartmental analysis.

[2] = parameters: method as in PMID 19309757; settings: rat, monomeric compound (purity ≥ 98%) instead of extract; cited from earlier work
[3] = Stability of the three diterpenes in rat plasma under different storage conditions; type: in vitro ADME; settings: n = 6; for Stability (% RE) Post-Preparative: extracted samples, 12 h at 4 °C; for Stability (% RE) Long-Term / Stability (% RE) Short-Term / Stability (% RE) Freeze-Thaw: rat plasma; for Stability (% RE) Long-Term: 2 weeks at −20 °C; for Stability (% RE) Short-Term: room temperature 4 h; for Stability (% RE) Freeze-Thaw: three freeze (−20 °C)-thaw cycles
Description: The stability of the three diterpenes was assessed under various conditions (Table 4). […] Moreover, all the investigated compounds were stable for 2 weeks when kept frozen at −20 °C. The stability including cycles of freeze-thaw stability (three freeze at −20 °C and thaw cycles), room temperature stability (storage for 4 h at ambient temperature), long-term stability (storage for 2 weeks at −20 °C), post-preparation stability (storage for 12 h after sample preparation at 4 °C) were tested at LQC, MQC, HQC levels with six replicates at each level. The results were compared with those for freshly prepared QC samples and the percentage concentration deviation was calculated. The accuracy should be within ± 15% in freshly prepared samples. All the testing QC samples of stability were determined by using the calibration curve of freshly prepared standard samples.

[4] = male, Sprague-Dawley, rat, plasma, po, 0.24 g/kg, oral R. officinalis extract 0.24 g/kg (low dose), read-out: Cmax
[5] = male, Sprague-Dawley, rat, plasma, po, 0.82 g/kg, oral R. officinalis extract 0.82 g/kg (medium dose), read-out: Cmax
[6] = male, Sprague-Dawley, rat, plasma, po, 2.45 g/kg, oral R. officinalis extract 2.45 g/kg (high dose), read-out: Cmax
[7] = male, Sprague-Dawley, oral R. officinalis extract 0.24 g/kg (low dose)
[8] = male, Sprague-Dawley, oral R. officinalis extract 0.82 g/kg (medium dose)
[9] = male, Sprague-Dawley, oral R. officinalis extract 2.45 g/kg (high dose)
[10] = high QC (25,800/3488/4080 ng/mL)
[11] = low QC (21.50/2.910/3.400 ng/mL)
[12] = medium QC (1075/145.3/170.0 ng/mL)
[13] = low QC (21.50/2.910/3.400 ng/mL carnosic acid/carnosol/rosmanol)

Row | Compound | Cmax [1, 4] [ng/mL] | Cmax [1, 5] [ng/mL] | Cmax [1, 6] [ng/mL] | concentration at 0.5 h ([1]; male, Sprague-Dawley) [ng/mL] | AUC(0-inf) [1, 7] [ng·h/mL] | AUC(0-t) [1, 7] [ng·h/mL] | Tmax [1, 7] [h] | half-life [1, 7] [h] | AUC(0-inf) [1, 8] [ng·h/mL] | AUC(0-t) [1, 8] [ng·h/mL] | Tmax [1, 8] [h] | half-life [1, 8] [h] | AUC(0-inf) [1, 9] [ng·h/mL] | AUC(0-t) [1, 9] [ng·h/mL] | Tmax [1, 9] [h] | half-life [1, 9] [h] | Stability (% RE) Post-Preparative [3, 10] [% RE] | Stability (% RE) Post-Preparative [3, 11] [% RE] | Stability (% RE) Post-Preparative [3, 12] [% RE] | Stability (% RE) Long-Term [3, 10] [% RE] | other results
1 | CC(C)c1cc2c(c(O)c1O)[C@@]1(C(=O)O)CCCC(C)(C)[C@@H]1CC2 [Carnosic acid] | 1210 ± 344 | 3960 ± 516 | 27500 | 27900 | 14900 | 9140 ± 1500 | 0.3 ± 0.11 | 8.02 ± 2.08 | 40000 | 28500 | 0.3 ± 0.11 | 12.8 ± 5.14 | 181000 | 146000 | 0.5 ± 0.31 | 12.8 ± 1.23 | 14.83 | 13.89 | 14.10 | 14.84 | Tmax [2]: 2.17 h; Stability (% RE) Long-Term [3, 11]: 13.78 % RE; Stability (% RE) Long-Term [3, 12]: 14.30 % RE; Stability (% RE) Short-Term [3, 10]: 14.84 % RE; Stability (% RE) Short-Term [3, 11]: 10.21 % RE; Stability (% RE) Short-Term [3, 12]: 14.80 % RE; Stability (% RE) Freeze-Thaw [3, 10]: 14.40 % RE; Stability (% RE) Freeze-Thaw [3, 13]: 14.04 % RE; Stability (% RE) Freeze-Thaw [3, 12]: 14.82 % RE
2 | CC(C)c1cc2c(c(O)c1O)[C@@]13CCCC(C)(C)[C@@H]1C[C@@H]2OC3=O [Carnosol] | 217 ± 53.1 | 413 ± 42.6 | 1480 ± 266 | 1830 | 1820 ± 327 | 1470 ± 190 | 0.4 ± 0.13 | 12.3 ± 2.36 | 7360 ± 2740 | 3190 ± 316 | 0.27 ± 0.15 | 13.9 ± 6.95 | 17400 | 14000 | 0.7 ± 0.45 | 12.8 ± 3.15 | 2.09 | 2.32 | 0.66 | −0.48 | Cmax ([1]; oral R. officinalis extract 0.24 g/kg (low dose)): 216.56 ± 53.09 ng/mL; Cmax ([1]; oral R. officinalis extract 0.82 g/kg (medium dose)): 413.34 ± 42.59 ng/mL; Stability (% RE) Long-Term [3, 11]: 3.10 % RE; Stability (% RE) Long-Term [3, 12]: 14.49 % RE; Stability (% RE) Short-Term [3, 10]: −0.79 % RE; Stability (% RE) Short-Term [3, 11]: 8.07 % RE; Stability (% RE) Short-Term [3, 12]: −8.67 % RE; Stability (% RE) Freeze-Thaw [3, 10]: 0.30 % RE; Stability (% RE) Freeze-Thaw [3, 13]: 5.39 % RE; Stability (% RE) Freeze-Thaw [3, 12]: 8.40 % RE
3 | CC(C)c1cc2c(c(O)c1O)[C@@]13CCCC(C)(C)[C@@H]1[C@H](OC3=O)[C@H]2O [Rosmanol] | 77.2 ± 10.5 | 188 ± 75.9 | 633 ± 118 | 568 | 552 ± 130 | 460 ± 54.9 | 0.25 | 8.88 ± 3.52 | 826 ± 138 | 678 ± 56.9 | 0.2 ± 0.18 | 9.75 ± 2.44 | 7980 ± 1650 | 5370 ± 927 | 0.55 ± 0.27 | 15.4 ± 3.54 | 4.60 | −0.30 | −7.65 | 9.17 | Cmax ([1]; oral R. officinalis extract 2.45 g/kg (high dose)): 633.41 ± 118.52 ng/mL; Stability (% RE) Long-Term [3, 11]: 7.17 % RE; Stability (% RE) Long-Term [3, 12]: −8.56 % RE; Stability (% RE) Short-Term [3, 10]: 0.65 % RE; Stability (% RE) Short-Term [3, 11]: 5.01 % RE; Stability (% RE) Short-Term [3, 12]: −8.16 % RE; Stability (% RE) Freeze-Thaw [3, 10]: −0.07 % RE; Stability (% RE) Freeze-Thaw [3, 13]: 4.65 % RE; Stability (% RE) Freeze-Thaw [3, 12]: −7.12 % RE
